According to patent US20060292203A1, “Methods and compositions for the treatment of ocular disorders” (TargeGen, Inc., priority 2005, published 2006):
In brackets after ≈: the same amount, converted by molar mass.

Key:
Water solubility (pH 5) = conditions: for Water solubility: pH 5; for solubility: pH 5, water
[1] = Phospholipid affinity PC:Drug (molar); type: physicochemical; conditions: molar ratio PC:Drug
[2] = tested on: VEGF-induced retinal permeability; test: Ocular model of retinal edema following eyedrops (Evans Blue albumin leakage); type: in vivo; conditions: mice
Protocol: Formulations prepared as described in Examples 20 and 21 were used in these studies. Topical eyedrops of Compound (V) (one time or three times a day), or Compound (VI) (single eye drop) were administered to mice. After 1-2 hr, VEGF was injected intravitreally into mouse eyes. An hour later Evans Blue dye was injected intravenously into the tail vein. About 4 hrs later animals were sacrificed, blood was collected and eyes were enucleated. VEGF-induced retinal permeability as measured by albumin leakage in the eye was measured.

[3] = tested on: choroidal neovascularization; test: Laser-induced choroidal neovascularization model; type: in vivo, C57BL/6 mice; conditions: for Reduction of area of neovascularization compared to control: topical
Protocol: After 2 weeks, mice were perfused with fluorescein-labeled dextran, and choroidal flatmounts were analyzed using image analysis software to recognize fluorescently stained neovascularization and calculate the total area of neovascularization per retina.

[4] = Pharmacokinetic study of Compound (VI) after topical administration (Example 14); type: in vivo, Dutch-Belted rabbits; conditions: BID for three days vs QD for three days, 1% dose
Protocol: A formulation prepared as described in example 13 was used. Compound (VI) was administered topically (50 μL) to rabbits either as BID for three days or QD for three days dose regimen (1% dose).

[5] = Pharmacokinetic study of Compound (V) after topical administration (Example 4); type: in vivo, Dutch-Belted rabbits; conditions: 50 μL topical, 0.5% dose, QD for one day; rabbit
Protocol: A formulation containing Compound (V) prepared as described in Example 1 was used in this experiment. 50 μL of Compound (V) (QD for one day) was administered topically to rabbits at 0.5% dose. Ocular tissues such as choroid, retina, sclera and cornea were collected and concentrations measured. Choroidal concentrations were 4 fold higher than retinal concentration.

[6] = Pharmacokinetic study of Compound (VI) after topical administration (Example 8); type: in vivo, Lone Evans rat pups; conditions: Compound (V) analysed after single 10 μL eyedrops of 0.2, 0.5 or 1% Compound (VI)
Protocol: Formulations prepared as described in Example 5 were used. Rat pups were administered single 10 μL eyedrops of 0.2, 0.5 or 1% Compound (VI) dose. Eye tissues were collected at various time points for Compound (V) analysis using LC/MS/MS. […] Half-life of Compound (V) ranged from 5 to 8 hours in the choroids.

[7] = Pharmacokinetic study of Compounds (X) and (VIII) after topical administration (Example 12); type: in vivo, Dutch-Belted rabbits; conditions: Compound (V) after prodrug Compound (VIII) delivered topically to the eye
Protocol: Formulations prepared as described in Example 9 and 11 were used. Compounds (X) and (VIII) were administered as eyedrops (50 μL) either as QD for three days or BID for three days as the dose regimen.
The retinal concentrations varied depending on the formulation used. The cLogD at pH of 7.4 for Compound (VIII) is 0.14 while for Compound (X) is 3.54.

[8] = Pharmacokinetic study of Compound (XI) after topical administration (Example 3); type: in vivo, Dutch-Belted rabbits; conditions: eyedrops 1% API, 50 μL BID for 3 days; rabbit
Protocol: A formulation was prepared as in Example 1 but using Compound (XI) instead of Compound (V). Compound (XI) was administered as eyedrops (1% API, 50 μL) BID for 3 days. On day 3 following a single dose, rabbits were sacrificed, enucleated and various ocular tissues (retina, choroid, cornea, etc) collected. Concentrations in the tissues were measured using LC/MS/MS, following tissue homogenization and acetonitrile precipitation. PK data analysis was conducted using WINNONLIN program. […] Half-life was long at approximately 8 hours.

Row | Molecule | solubility (Water solubility (pH 5); water) [µg/mL] | further results
1 | CP(C)(=O)c1ccc(Nc2nc(C3CCCC3)nc3c2ncn3CCc2cccc(O)c2)cc1 [AP23464, reference compound] | – | Water solubility (Water solubility (pH 5)): >0.1 mg/mL
2 | COc1ccc(Cl)c(Nc2ncnc3cc(OCC4CCN(C)CC4)c(OC)cc23)c1 [AZM475271, reference compound] | < 100 | Phospholipid affinity PC: Drug (molar) [1]: 50.73
3 | CC(=O)Nc1nnc(S(N)(=O)=O)s1 [Acetazolamide, reference compound] | < 1000 | –
4 | Brc1c(NC2=NCCN2)ccc2nccnc12 [Brimonidine, reference compound] | > 2000 | –
5 | CC(C)CCC[C@@H](C)[C@H]1CC[C@H]2[C@@H]3CC=C4C[C@@H](O)CC[C@]4(C)[C@H]3CC[C@]12C [Cholesterol, reference compound] | < 1000 | –
6 | Cc1cccc(C)c1-c1cc(C)c2nc(Nc3ccc(OCCN4CCCC4)cc3)nnc2c1 [IV] | < 100 | –
7 | O=C(Nc1cnc(Nc2cccc(OCCN3CCCC3)c2)nc1)c1c(Cl)cccc1Cl [I] | < 100 | –
8 | Cc1cc(Nc2ncc3cc(-c4c(Cl)cccc4Cl)c(=O)n(C)c3n2)ccc1F [PD180970, reference compound] | – | Water solubility (Water solubility (pH 5)): <<0.1 mg/mL
9 | Cc1ccc(-c2nn(C(C)(C)C)c3ncnc(N)c23)cc1 [PP1, reference compound] | – | Water solubility (Water solubility (pH 5)): <0.1 mg/mL
10 | COc1cc(Nc2c(C#N)cnc3cc(OCCCN4CCN(C)CC4)c(OC)cc23)c(Cl)cc1Cl [SKI606, reference compound] | < 1000 | –
11 | CCN(CC)CCNC(=O)c1c(C)[nH]c(/C=C2\C(=O)Nc3ccc(F)cc32)c1C [Su11248, reference compound] | > 1000 | –
12 | CC1(C)O[C@@H]2C[C@H]3[C@@H]4CCC5=CC(=O)C=C[C@]5(C)[C@@]4(F)[C@@H](O)C[C@]3(C)[C@]2(C(=O)CO)O1 [TAA, reference compound] | – | Water solubility (Water solubility (pH 5)): <0.1 mg/mL
13 | C=CC[C@@H]1/C=C(\C)C[C@H](C)C[C@H](OC)[C@H]2O[C@@](O)(C(=O)C(=O)N3CCCC[C@H]3C(=O)O[C@H](/C(C)=C/[C@@H]3CC[C@@H](O)[C@H](OC)C3)[C@H](C)[C@@H](O)CC1=O)[C@H](C)C[C@@H]2OC [Tacrolimus, reference compound] | < 100 | –
14 | Cc1cc(-c2cc(O)ccc2Cl)cc2nnc(Nc3ccc(S(=O)(=O)NCCN4CCCC4)cc3)nc12 [VII] | < 100 | –
15 | Cc1cc(-c2cc(OC(=O)c3ccccc3)ccc2Cl)cc2nnc(Nc3ccc(OCCN4CCCC4)cc3)nc12 [VI] | < 100 | Inhibition of retinal leak ([2]; QD eyedrop administration): 100%; Reduction of area of neovascularization compared to control ([3]; 50 μg per eye): approximately 47%; Reduction of area of neovascularization compared to control ([3]; 150 μg per eye): approximately 35%; Effect on choroidal neovascularization (FIG. 2) ([3]; topical administration): prevents choroidal neovascularization; Back of the eye concentrations, dependence on dose regimen [4]: linear
16 | Cc1cc(-c2cc(O)ccc2Cl)cc2nnc(Nc3ccc(OCCN4CCCC4)cc3)nc12 [V] | < 100 | Choroidal concentration relative to retinal concentration [5]: 4 fold; Half-life (comparison) [5]: about two times longer; Inhibition of retinal leak ([2]; QD eyedrop administration): 50%; Inhibition of retinal leak ([2]; TID eyedrop dosing): ~80%; Concentrations in the retina, dose dependence [6]: non-linear; Mean AUC in the choroid, dose dependence [6]: linear; Amount of API recovered from the retina and the choroid [7]: No measurable amount; Concentrations in the choroid [8]: at the μM level
17 | Clc1ccc(Nc2nnc(Cc3ccncc3)c3ccccc23)cc1 [Vatalanib, reference compound] | > 2000 | Phospholipid affinity PC: Drug (molar) [1]: Not stable
18 | Cc1cccc(C)c1-c1cc(C)c2nc(Nc3ccc(S(=O)(=O)NCCN4CCCC4)cc3)nnc2c1 [XIII] | < 100 | –
19 | Cc1cc(-c2cc(OP(=O)([O-])[O-])ccc2Cl)cc2nnc(Nc3ccc(OCCN4CCCC4)cc3)nc12.[Na+].[Na+] [XII] | < 100 | –
20 | Cc1ccc(C(=O)Oc2ccc(Cl)c(-c3cc(C)c4nc(Nc5ccc(OCCN6CCCC6)cc5)nnc4c3)c2)cc1 [XIX] | < 100 | –
21 | Cc1cc(-c2c(Cl)cccc2Cl)cc2nnc(Nc3ccc(OCCN4CCCC4)cc3)nc12 [XI] | < 100 | –
22 | Cc1cc(-c2cc(OC(=O)c3ccccc3)ccc2Cl)cc2nnc(Nc3ccc(S(=O)(=O)NCCN4CCCC4)cc3)nc12 [XVIII] | < 100 | –
23 | CC(=O)Oc1ccc(Cl)c(-c2cc(C)c3nc(Nc4ccc(OCCN5CCCC5)cc4)nnc3c2)c1 [XVII] | < 100 | –
24 | Cc1cc(-c2c(Cl)ccc(O)c2Cl)cc2nnc(Nc3ccc(S(=O)(=O)NCCN4CCCC4)cc3)nc12 [XVI] | < 100 | –
25 | Cc1cc(-c2cc(O)ccc2Br)cc2nnc(Nc3ccc(S(=O)(=O)NCCN4CCCC4)cc3)nc12 [XV] | < 100 | –
26 | Nc1nc(O)c2nc(-c3cccc(O)c3)c(-c3cccc(O)c3)nc2n1 [XXI] | < 100 | –
27 | Cc1cc(-c2cc(OC(=O)C(C)C)ccc2Cl)cc2nnc(Nc3ccc(OCCN4CCCC4)cc3)nc12 [XX] | < 100 | –
28 | Cc1cc(-c2cc(OC(=O)C(C)(C)C)ccc2Cl)cc2nnc(Nc3ccc(OCCN4CCCC4)cc3)nc12 [X] | < 100 | –
29 | CC(C)NCC(O)COc1cccc2ccccc12 (stereo not drawn) [propanolol, reference compound] | – | solubility (Water solubility (pH 5)): ~100 µg/mL (≈ 386 µM)
30 | Tropicamide [reference compound] | – | Water solubility (Water solubility (pH 5)): <1 mg/mL
